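Five concentrations, 48 hours, 96-well plates. GI50 is the concentration that inhibits growth by half.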 The source made the active and inactive calls. Rule as the data show it: active = GI50 up to about 1.1 µM and inactive = higher.
How the values were obtained:
Experiment in all cases: inhibition of tumour cell growth, NCI panel, 48 h
DLD-1 = system: DLD-1
DMS-114 = system: DMS-114
DMS-273 = system: DMS-273
HOP-18 = system: HOP-18
KM-20L2 = system: KM-20L2
LXFL 529 = system: LXFL 529
SNB-78 = system: SNB-78
XF498 = system: XF498
RXF 631 = system: RXF 631

Row | SMILES | GI50 (DLD-1) | GI50 (DMS-114) | GI50 (DMS-273) | GI50 (HOP-18) | GI50 (KM-20L2) | GI50 (LXFL 529) | GI50 (SNB-78) | GI50 (XF498) | GI50 (RXF 631)
1 | CN(Cc1cnc2nc(N)nc(N)c2n1)c1ccc(C(=O)NC(CCC(=O)O)C(=O)O)c2ccccc12 (stereo unspecified) | 0.01 µM (active) | 0.000847 µM (active) | 0.01 µM (active) | > 100 µM (inactive) | 0.01 µM (active) | 0.00135 µM (active) | > 65 µM (inactive) | > 100 µM (inactive) | –
2 | CCC(C)(C)C(=O)O[C@H]1C[C@@H](C)C=C2C=C[C@H](C)[C@H](CC[C@@H]3C[C@@H](O)CC(=O)O3)[C@H]21 [SIMVASTATIN] | > 30 µM (inactive) | 23.7 µM (inactive) | 2.88 µM (inactive) | > 30 µM (inactive) | 12.3 µM (inactive) | 6.67 µM (inactive) | > 30 µM (inactive) | > 30 µM (inactive) | 0.55 µM (active)
3 | C#CCC(O)c1ccccc1C(O)CC#C (stereo unspecified) | > 100 µM (inactive) | > 100 µM (inactive) | > 100 µM (inactive) | – | > 100 µM (inactive) | > 100 µM (inactive) | 77.8 µM (inactive) | – | –
4 | CC1(C)COC(c2cccnc2/C=N/O)=N1 | > 100 µM (inactive) | – | > 100 µM (inactive) | > 100 µM (inactive) | > 100 µM (inactive) | > 100 µM (inactive) | > 100 µM (inactive) | > 100 µM (inactive) | > 100 µM (inactive)
5 | C=CCC12CCC(=O)C=C1CCC1(C2)OCCO1 (stereo unspecified) | > 100 µM (inactive) | > 100 µM (inactive) | > 100 µM (inactive) | > 100 µM (inactive) | > 100 µM (inactive) | > 100 µM (inactive) | > 100 µM (inactive) | – | > 100 µM (inactive)
6 | Oc1ccc2ccccc2c1/N=N/c1ccc(F)cc1 | – | > 100 µM (inactive) | > 100 µM (inactive) | > 100 µM (inactive) | > 100 µM (inactive) | > 100 µM (inactive) | – | – | –
7 | O=C1C(=O)N(c2ccc(Cl)cc2)C(=O)C(=O)C1c1nc2ccccc2s1 | – | > 100 µM (inactive) | > 100 µM (inactive) | > 100 µM (inactive) | > 100 µM (inactive) | > 100 µM (inactive) | > 100 µM (inactive) | > 100 µM (inactive) | –
8 | N#CC1CC(c2ccccc2)Nc2cc(Cl)ccc2N1 (stereo unspecified) | 28.9 µM (inactive) | 5.78 µM (inactive) | 31.2 µM (inactive) | > 87.1 µM (inactive) | 43.7 µM (inactive) | 21 µM (inactive) | 50.7 µM (inactive) | 29.7 µM (inactive) | –
9 | COc1cc(-c2c(C)c(C)nc(OC)c2C#N)cc(OC)c1OC | > 100 µM (inactive) | 49.8 µM (inactive) | – | 46.1 µM (inactive) | > 100 µM (inactive) | 41.9 µM (inactive) | 92 µM (inactive) | – | –
10 | N#Cc1cc([N+](=O)[O-])ccc1NC(=O)C(=O)C(C(=O)/C=C/c1ccccc1)C1OC(=O)c2ccccc21 (stereo unspecified) | > 100 µM (inactive) | > 100 µM (inactive) | – | > 100 µM (inactive) | > 100 µM (inactive) | > 100 µM (inactive) | > 100 µM (inactive) | > 100 µM (inactive) | > 100 µM (inactive)
11 | Cc1cc(N(CCC#N)CCC#N)ccc1/C=C1N=C(/C=C\c2ccccc2)N(NC(=O)CC(=O)Nc2ccccc2Cl)C\1=O | > 100 µM (inactive) | > 100 µM (inactive) | – | > 100 µM (inactive) | > 100 µM (inactive) | > 100 µM (inactive) | – | – | > 100 µM (inactive)
12 | N#CC(C#N)c1ccc(C(=O)N2CCC[C@H]2CO)cc1 | > 100 µM (inactive) | > 100 µM (inactive) | > 100 µM (inactive) | > 100 µM (inactive) | > 100 µM (inactive) | > 100 µM (inactive) | – | – | > 100 µM (inactive)
13 | O=C(O)[C@@H]1OCCOCCO[C@@H](C(=O)O)[C@H](C(=O)O)OCCOCCO[C@H]1C(=O)O | > 42.1 µM (inactive) | > 50.8 µM (inactive) | > 100 µM (inactive) | > 100 µM (inactive) | > 100 µM (inactive) | > 100 µM (inactive) | > 100 µM (inactive) | > 30.3 µM (inactive) | –
14 | CCOP(=O)(OCC)OC(C#N)c1ccc(-c2ccccc2)cc1 (stereo unspecified) | 18.4 µM (inactive) | 15 µM (inactive) | 14.4 µM (inactive) | 27.7 µM (inactive) | 41.3 µM (inactive) | 17.8 µM (inactive) | 33 µM (inactive) | 23.9 µM (inactive) | –
15 | c1ccc(SC2(Sc3ccccc3)CCCC2)cc1 | > 100 µM (inactive) | > 100 µM (inactive) | > 100 µM (inactive) | – | > 100 µM (inactive) | – | > 100 µM (inactive) | > 100 µM (inactive) | > 100 µM (inactive)
16 | CC(C)(C)C(=O)C1CC(=O)c2ccccc2C1=O (stereo unspecified) | 30.4 µM (inactive) | 33.9 µM (inactive) | – | 37.5 µM (inactive) | 38 µM (inactive) | – | 27.5 µM (inactive) | 34.4 µM (inactive) | 36.7 µM (inactive)
17 | CCOc1ccc(NC(=O)/C(CC(=O)c2c[n+]([O-])c3ccccc3[n+]2[O-])=N\OCCCc2ccccc2)cc1 | > 100 µM (inactive) | > 100 µM (inactive) | > 100 µM (inactive) | – | > 100 µM (inactive) | > 100 µM (inactive) | > 100 µM (inactive) | – | > 100 µM (inactive)
18 | O=c1cccccc1NCCCCCCCCCNc1cccccc1=O | 10.8 µM (inactive) | 1.35 µM (inactive) | 12.5 µM (inactive) | – | 19.6 µM (inactive) | 8.97 µM (inactive) | 17.1 µM (inactive) | 7.36 µM (inactive) | –
19 | COc1ccc(/C=C\c2cc(OC)c(O[Si](C)(C)C(C)(C)C)c(OC)c2)cc1 | 45.3 µM (inactive) | 20.3 µM (inactive) | 44.4 µM (inactive) | – | 45.3 µM (inactive) | 33.7 µM (inactive) | – | 22.6 µM (inactive) | 45.8 µM (inactive)
20 | N#CC(C(=O)C(N)=O)c1ccccc1Cl (stereo unspecified) | > 100 µM (inactive) | > 100 µM (inactive) | > 100 µM (inactive) | > 100 µM (inactive) | > 100 µM (inactive) | > 100 µM (inactive) | – | > 100 µM (inactive) | > 100 µM (inactive)
21 | COc1cc2ccc3c4ccccc4cnc3c2cc1OC | > 100 µM (inactive) | – | – | > 100 µM (inactive) | > 100 µM (inactive) | > 100 µM (inactive) | > 100 µM (inactive) | – | > 100 µM (inactive)
22 | CC(=O)OC1CC2(c3ccccc3)C(=O)c3ccccc3N2O1 (stereo unspecified) | > 100 µM (inactive) | > 100 µM (inactive) | > 100 µM (inactive) | > 100 µM (inactive) | > 100 µM (inactive) | > 100 µM (inactive) | > 100 µM (inactive) | > 100 µM (inactive) | –
23 | CNS(=O)(=O)NNS(=O)(=O)c1ccc(OC)cc1 | > 100 µM (inactive) | > 100 µM (inactive) | > 100 µM (inactive) | – | > 100 µM (inactive) | > 100 µM (inactive) | – | > 100 µM (inactive) | > 100 µM (inactive)
24 | CC1=C(C(=O)O)N2C(=O)[C@@H](NC(=O)C(c3ccccc3)N3CSC(=S)N(C(C)C)C3)C2SC1 (stereo partly specified) | > 100 µM (inactive) | – | > 100 µM (inactive) | > 100 µM (inactive) | > 100 µM (inactive) | > 100 µM (inactive) | > 100 µM (inactive) | > 100 µM (inactive) | –
25 | COc1cccc2[s+]snc12 | 35.6 µM (inactive) | – | 53.2 µM (inactive) | 41.3 µM (inactive) | > 100 µM (inactive) | 43.3 µM (inactive) | 38.7 µM (inactive) | 18.8 µM (inactive) | –
26 | Cc1c2cc[n+](CCN3CCCCC3)cc2c(C)c2c1[nH]c1ccc(O)cc12 | 4.6 µM (inactive) | 1.51 µM (inactive) | 1.72 µM (inactive) | 13.1 µM (inactive) | 6.43 µM (inactive) | – | 3.75 µM (inactive) | – | –

From ChEMBL document CHEMBL1201862, “PubChem BioAssay data set” (2004)
